In ChEMBL document CHEMBL5257091, “Hydrazinecarbonyl-thiazol-2-acetamides with pronounced apoptotic behavior: synthesis, in vitro/in vivo anti-proliferative activity and molecular modeling simulations” (Bioorg Med Chem Lett, 2023):

Assays:
HEp-2 = assay: Antiproliferative activity against human HEp-2 cells assessed as inhibition of cell growth incubated for 24 hrs by MTT assay; assay type: functional, cell-based; details: HEp-2, 24 h
HeLa [1] = assay: Induction of cell cycle arrest in human HeLa cells assessed as cell debris incubated for 24 hrs by PI staining based flow cytometry analysis (reference value: 2.13%); assay type: functional
MCF7 [2] = assay: Induction of cell cycle arrest in human MCF7 cells assessed as accumulation of cells at pre-G1 phase incubated for 24 hrs by PI staining based flow cytometry analysis (reference value: 2.11%); assay type: functional
HeLa [3] = assay: Induction of apoptosis in human HeLa cells assessed as late apoptotic cells incubated for 24 hrs by annexin V-FITC/PI staining based flow cytometry analysis (reference value: 0.16%); assay type: functional
HeLa [4] = assay: Induction of cell cycle arrest in human HeLa cells assessed as accumulation of cells at G2/M phase incubated for 24 hrs by PI staining based flow cytometry analysis (reference value: 10.38%); assay type: functional
MCF7 [5] = assay: Induction of apoptosis in human MCF7 cells assessed as early apoptotic cells incubated for 24 hrs by annexin V-FITC/PI staining based flow cytometry analysis (reference value: 0.62%); assay type: functional
Dihydrofolate reductase = target: T1, Dihydrofolate reductase (Homo sapiens, UniProt P00374); assay: Inhibition of DHFR (unknown origin) incubated for 2 to 5 mins by absorbance based analysis
T1 sequence (P00374 whole entry): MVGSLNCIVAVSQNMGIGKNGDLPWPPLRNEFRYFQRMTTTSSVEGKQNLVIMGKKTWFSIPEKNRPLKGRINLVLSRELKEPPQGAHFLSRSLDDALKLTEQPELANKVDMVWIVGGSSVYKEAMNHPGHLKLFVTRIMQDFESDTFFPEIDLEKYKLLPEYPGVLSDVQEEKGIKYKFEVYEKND

HCT-116 = assay: cells; details: Homo sapiens, HCT-116, 24 h
Description: Antiproliferative activity against human HCT-116 cells assessed as inhibition of cell growth incubated for 24 hrs by MTT assay

HepG2 = assay: Antiproliferative activity against human HepG2 cells assessed as inhibition of cell growth incubated for 24 hrs by MTT assay; assay type: functional, cell-based; details: HepG2, 24 h
HeLa [6] = assay: Induction of cell cycle arrest in human HeLa cells assessed as cell aggregates incubated for 24 hrs by PI staining based flow cytometry analysis (reference value: 1.46%); assay type: functional
[7] = Toxicity in Swiss albino mouse implanted with mouse Ehrlich cells assessed as mean body weight at 10 mg/kg, iv administered once daily for 20 days (reference value: 30 g); assay type: organism-based; details: in vivo, 480 h, time 20 day
HeLa [8] = assay: Induction of cell cycle arrest in human HeLa cells assessed as accumulation of cells at pre-G1 phase incubated for 24 hrs by PI staining based flow cytometry analysis (reference value: 1.85%); assay type: functional
Ehrlich = assay: Antitumor activity against mouse Ehrlich cells implanted in Swiss albino mouse assessed as reduction in tumor volume at 10 mg/kg, iv administered once daily for 20 days relative to control; assay type: functional; design: scale not given: the % may be the effect or the level left; details: time 20 day
HeLa [9] = assay: Induction of apoptosis in human HeLa cells assessed as total apoptotic cells incubated for 24 hrs by annexin V-FITC/PI staining based flow cytometry analysis (reference value: 1.85%); assay type: functional
HeLa [10] = assay: Induction of apoptosis in human HeLa cells assessed as necrotic cells incubated for 24 hrs by annexin V-FITC/PI staining based flow cytometry analysis (reference value: 1.15%); assay type: functional
HeLa [11] = assay: Induction of cell cycle arrest in human HeLa cells assessed as accumulation of cells at S phase incubated for 24 hrs by PI staining based flow cytometry analysis (reference value: 28.54%); assay type: functional
[12] = Selectivity index, ratio of IC50 for cytotoxicity against human WI-38 cells to IC50 for antiproliferative activity against human MCF7 cells; assay type: toxicity, cell-based; details: WI-38 cells and MCF7 cells, read-out: Ratio IC50
HeLa [13] = assay: Antiproliferative activity against human HeLa cells assessed as inhibition of cell growth incubated for 24 hrs by MTT assay; assay type: functional, cell-based
[14] = Selectivity index, ratio of IC50 for cytotoxicity against human WI-38 cells to IC50 for antiproliferative activity against human HEp-2 cells; assay type: toxicity, cell-based; details: WI-38 cells and HEp-2 cells, read-out: Ratio IC50
MCF7 [15] = assay: Induction of cell cycle arrest in human MCF7 cells assessed as cell aggregates incubated for 24 hrs by PI staining based flow cytometry analysis (reference value: 1.75%); assay type: functional
[16] = Toxicity in Swiss albino mouse implanted with mouse Ehrlich cells assessed as reduction in body weight gain at 10 mg/kg, iv administered once daily for 20 days relative to control; assay type: organism-based; design: scale not given: the % may be the effect or the level left; details: in vivo, 480 h, time 20 day
MCF7 [17] = assay: Antiproliferative activity against human MCF7 cells assessed as inhibition of cell growth incubated for 24 hrs by MTT assay; assay type: functional, cell-based; details: MCF7, 24 h
MCF7 [18] = assay: Induction of cell cycle arrest in human MCF7 cells assessed as accumulation of cells at G2/M phase incubated for 24 hrs by PI staining based flow cytometry analysis (reference value: 12.2%); assay type: functional
[19] = Selectivity index, ratio of IC50 for cytotoxicity against human WI-38 cells to IC50 for antiproliferative activity against human PC-3 cells; assay type: toxicity, cell-based; details: WI-38 cells and PC-3 cells, read-out: Ratio IC50
PC-3 = assay: Antiproliferative activity against human PC-3 cells assessed as inhibition of cell growth incubated for 24 hrs by MTT assay; assay type: functional, cell-based; details: PC-3, 24 h
HeLa [20] = assay: Induction of apoptosis in human HeLa cells assessed as early apoptotic cells incubated for 24 hrs by annexin V-FITC/PI staining based flow cytometry analysis (reference value: 0.54%); assay type: functional
[21] = Selectivity index, ratio of IC50 for cytotoxicity against human WI-38 cells to IC50 for antiproliferative activity against human HepG2 cells; assay type: toxicity, cell-based; details: WI-38 cells and HepG2 cells, read-out: Ratio IC50
MCF7 [22] = assay: Induction of cell cycle arrest in human MCF7 cells assessed as accumulation of cells at G0/G1 phase incubated for 24 hrs by PI staining based flow cytometry analysis (reference value: 52.61%); assay type: functional
MCF7 [23] = assay: Induction of apoptosis in human MCF7 cells assessed as necrotic cells incubated for 24 hrs by annexin V-FITC/PI staining based flow cytometry analysis (reference value: 1.28%); assay type: functional
MCF7 [24] = assay: Induction of apoptosis in human MCF7 cells assessed as total apoptotic cells incubated for 24 hrs by annexin V-FITC/PI staining based flow cytometry analysis (reference value: 2.11%); assay type: functional
[25] = Selectivity index, ratio of IC50 for cytotoxicity against human WI-38 cells to IC50 for antiproliferative activity against human HeLa cells; assay type: toxicity, cell-based; details: WI-38 cells and HeLa cells, read-out: Ratio IC50
MCF7 [26] = assay: Induction of apoptosis in human MCF7 cells assessed as late apoptotic cells incubated for 24 hrs by annexin V-FITC/PI staining based flow cytometry analysis (reference value: 0.21%); assay type: functional
[27] = Cytotoxicity against human WI-38 cells assessed as inhibition of cell growth incubated for 24 hrs by MTT assay; assay type: toxicity, cell-based
MCF7 [28] = assay: Induction of cell cycle arrest in human MCF7 cells assessed as cell debris incubated for 24 hrs by PI staining based flow cytometry analysis (reference value: 2.12%); assay type: functional
[29] = Selectivity index, ratio of IC50 for cytotoxicity against human WI-38 cells to IC50 for antiproliferative activity against human HCT-116 cells; assay type: toxicity, cell-based; details: WI-38 cells and HCT-116 cells, read-out: Ratio IC50
MCF7 [30] = assay: Induction of cell cycle arrest in human MCF7 cells assessed as accumulation of cells at S phase incubated for 24 hrs by PI staining based flow cytometry analysis (reference value: 35.19%); assay type: functional
HeLa [31] = assay: Induction of cell cycle arrest in human HeLa cells assessed as accumulation of cells at G0/G1 phase incubated for 24 hrs by PI staining based flow cytometry analysis (reference value: 61.08%); assay type: functional
[32] = target: Epidermal growth factor receptor (Homo sapiens, UniProt P00533); assay: Inhibition of EGFR (unknown origin) by fluorimetric assay
Chain of Epidermal growth factor receptor (P00533 whole entry): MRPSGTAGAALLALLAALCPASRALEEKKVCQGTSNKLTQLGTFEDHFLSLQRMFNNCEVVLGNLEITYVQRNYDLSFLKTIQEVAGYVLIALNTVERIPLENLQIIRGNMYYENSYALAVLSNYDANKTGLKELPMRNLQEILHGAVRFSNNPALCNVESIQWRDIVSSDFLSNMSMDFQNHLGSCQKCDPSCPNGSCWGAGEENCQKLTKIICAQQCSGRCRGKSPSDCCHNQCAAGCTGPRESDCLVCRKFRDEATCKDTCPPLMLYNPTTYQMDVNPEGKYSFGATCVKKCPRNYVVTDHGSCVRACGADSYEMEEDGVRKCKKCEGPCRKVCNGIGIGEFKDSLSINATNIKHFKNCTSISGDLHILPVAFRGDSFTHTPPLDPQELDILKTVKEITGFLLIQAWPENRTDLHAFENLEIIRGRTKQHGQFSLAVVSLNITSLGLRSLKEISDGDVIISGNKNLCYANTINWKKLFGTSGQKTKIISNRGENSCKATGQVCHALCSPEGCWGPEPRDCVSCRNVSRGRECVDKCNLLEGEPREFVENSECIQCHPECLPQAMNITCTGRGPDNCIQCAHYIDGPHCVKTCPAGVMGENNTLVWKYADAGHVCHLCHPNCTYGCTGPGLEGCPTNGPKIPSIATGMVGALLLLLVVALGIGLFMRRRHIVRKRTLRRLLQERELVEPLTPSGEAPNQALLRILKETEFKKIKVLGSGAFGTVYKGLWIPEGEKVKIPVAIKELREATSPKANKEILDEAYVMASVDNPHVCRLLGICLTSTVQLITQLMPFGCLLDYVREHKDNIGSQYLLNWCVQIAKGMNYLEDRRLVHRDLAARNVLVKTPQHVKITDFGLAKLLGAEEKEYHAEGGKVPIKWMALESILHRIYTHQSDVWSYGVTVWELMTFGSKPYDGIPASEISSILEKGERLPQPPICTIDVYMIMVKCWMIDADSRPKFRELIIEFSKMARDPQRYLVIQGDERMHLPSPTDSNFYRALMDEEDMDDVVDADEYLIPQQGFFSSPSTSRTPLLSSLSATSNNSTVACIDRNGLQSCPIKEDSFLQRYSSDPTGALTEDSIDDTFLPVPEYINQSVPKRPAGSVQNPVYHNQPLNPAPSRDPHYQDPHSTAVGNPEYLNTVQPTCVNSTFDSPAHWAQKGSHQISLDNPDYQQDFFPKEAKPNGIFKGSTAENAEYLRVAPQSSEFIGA

SMILES: CC(=O)Nc1nc(C(=O)NNC(=O)CCN2CCCCC2)cs1
- IC50 (HEp-2): 7.62 µM
- Activity (HeLa [1]): 2.19%
- Activity (MCF7 [2]): 36.22%
- Activity (HeLa [3]): 24.39%
- Activity (HeLa [4]): 2.89%
- Activity (MCF7 [5]): 8.31%
- IC50 (Dihydrofolate reductase): 0.262 µM
- IC50 (HCT-116): 11.8 µM
- IC50 (HepG2): 6.21 µM
- Activity (HeLa [6]): 1.55%
- Activity [7]: 29.4 g
- Activity (HeLa [8]): 45.81%
- Activity (Ehrlich): 72.3%
- Activity (HeLa [9]): 45.81%
- Activity (HeLa [10]): 7.41%
- Activity (HeLa [11]): 44.39%
- selectivity ratio [12]: 8.19
- IC50 (HeLa [13]): 1.67 µM
- selectivity ratio [14]: 5.24
- Activity (MCF7 [15]): 2.19%
- Activity [16]: 18.3%
- IC50 (MCF7 [17]): 4.87 µM
- Activity (MCF7 [18]): 3.91%
- selectivity ratio [19]: 4.9
- IC50 (PC-3): 8.14 µM
- Activity (HeLa [20]): 14.01%
- selectivity ratio [21]: 6.43
- Activity (MCF7 [22]): 57.43%
- Activity (MCF7 [23]): 5.19%
- Activity (MCF7 [24]): 36.22%
- selectivity ratio [25]: 23.9
- Activity (MCF7 [26]): 22.72%
- IC50 at 24 h [27]: 39.9 µM
- Activity (MCF7 [28]): 1.46%
- selectivity ratio [29]: 3.37
- Activity (MCF7 [30]): 38.66%
- Activity (HeLa [31]): 52.72%
- IC50 [32]: 9.2 µM
